Patent publication US7205298B2, “Substituted triazine kinase inhibitors” (Janssen Pharmaceutica N.V., priority 2002, dated 2007)

Tests used:
Format in all cases: biochemical
[1] = target: T1, PKC β-2 (Homo sapiens, UniProt P05771); test: Kinase selectivity assay PKC β-2
T1 construct: purchased BIOMOL SE-143; host or cells: insect cells
Procedure: (§1) Assays to test compound inhibition of other kinases were preformed using methods that measure the amount of phosphorylation of a biotinylated peptide substrate. Biotinylated peptide substrates were selected from the literature as appropriate for the enzyme being evaluated. The general procedure used to assay for kinase activity is as follows: a kinase reaction mix was prepared in 50 mM Tris-HCl pH=8, 10 mM MgCl2, 0.1 mM Na3VO4, 1 mM DTT, 10 μM ATP, 0.25–1 μM biotinylated peptide substrate, 0.2–0.8 μCuries per well ^33P-γ-ATP (2000–3000 Ci/mmol). Assay conditions vary slightly for each protein kinase, for example, insulin receptor kinase requires 10 mM MnCl2 for activity and Calmodulin-dependent protein kinase requires calmodulin and 2 mM CaCl2. The reaction mixture was dispensed into the wells of a streptavidin coated Flashplate and 1 μL test compound in 100% DMSO was added to a 100 μL reaction volume resulting in a final concentration of 1% DMSO in the reaction. Enzyme was diluted in 50 mM Tris-HCl pH=8.0, 0.1% BSA and added to each well. The reaction was incubated for one hour at 30° C. in the presence of a test compound. […] The plate was read on a scintillation counter to determine ^33P-γ-ATP incorporated into the immobilized peptide substrate. […] A maximum and minimum signal for the assay was determined on each plate. […]

[2] = target: T2, PKC γ (Homo sapiens, UniProt P05129); test: Kinase selectivity assay PKC γ
T2 construct: purchased BIOMOL SE-143; host or cells: insect cells
Procedure: as §1

[3] = target: T3, EGF-R1 (Homo sapiens, UniProt P00533); test: Kinase selectivity assay EGF-R1
T3 construct: purified from human A431 cell membranes; purchased Sigma E3641; host or cells: human A431 cell membranes (endogenous protein)
Procedure: Assays to test compound inhibition of other kinases were preformed using methods that measure the amount of phosphorylation of a biotinylated peptide substrate. Biotinylated peptide substrates were selected from the literature as appropriate for the enzyme being evaluated. […] Assay conditions vary slightly for each protein kinase, for example, insulin receptor kinase requires 10 mM MnCl2 for activity and Calmodulin-dependent protein kinase requires calmodulin and 2 mM CaCl2. The reaction mixture was dispensed into the wells of a streptavidin coated Flashplate and 1 μL test compound in 100% DMSO was added to a 100 μL reaction volume resulting in a final concentration of 1% DMSO in the reaction. Enzyme was diluted in 50 mM Tris-HCl pH=8.0, 0.1% BSA and added to each well. The reaction was incubated for one hour at 30° C. in the presence of a test compound. After one hour the reaction mix was aspirated from the plate and the plate was washed with PBS containing 100 mM EDTA. The plate was read on a scintillation counter to determine ^33P-γ-ATP incorporated into the immobilized peptide substrate. Test compounds were assayed in duplicate at 8 concentrations (100 μM, 10 μM, 1 μM, 100 nM, 10 nM, 1 nM, 100 pM, 10 pM). A maximum and minimum signal for the assay was determined on each plate. […] Known inhibitor compounds appropriate for the kinase being assayed were also included on each plate. […]

Measured: IC50

T1 sequence (P05771 1-673 isoform P05771-2): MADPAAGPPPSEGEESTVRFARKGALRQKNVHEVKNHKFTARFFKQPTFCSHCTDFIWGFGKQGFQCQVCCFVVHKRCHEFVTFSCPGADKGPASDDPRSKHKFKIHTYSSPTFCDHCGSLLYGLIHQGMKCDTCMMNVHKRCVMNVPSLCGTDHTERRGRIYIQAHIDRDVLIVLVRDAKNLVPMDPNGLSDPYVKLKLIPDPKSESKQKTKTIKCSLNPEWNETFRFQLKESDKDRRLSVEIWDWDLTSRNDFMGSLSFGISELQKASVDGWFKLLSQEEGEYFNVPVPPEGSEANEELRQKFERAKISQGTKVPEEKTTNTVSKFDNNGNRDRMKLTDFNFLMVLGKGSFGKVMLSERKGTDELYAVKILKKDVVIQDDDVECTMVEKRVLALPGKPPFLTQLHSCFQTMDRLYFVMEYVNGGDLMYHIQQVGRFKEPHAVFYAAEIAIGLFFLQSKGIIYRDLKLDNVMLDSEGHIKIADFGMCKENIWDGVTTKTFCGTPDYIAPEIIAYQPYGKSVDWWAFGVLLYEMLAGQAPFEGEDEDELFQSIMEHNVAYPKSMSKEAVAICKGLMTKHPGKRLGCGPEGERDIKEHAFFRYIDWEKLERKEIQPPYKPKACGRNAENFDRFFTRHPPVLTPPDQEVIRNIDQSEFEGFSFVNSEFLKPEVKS
T3 sequence (P00533 25-1210): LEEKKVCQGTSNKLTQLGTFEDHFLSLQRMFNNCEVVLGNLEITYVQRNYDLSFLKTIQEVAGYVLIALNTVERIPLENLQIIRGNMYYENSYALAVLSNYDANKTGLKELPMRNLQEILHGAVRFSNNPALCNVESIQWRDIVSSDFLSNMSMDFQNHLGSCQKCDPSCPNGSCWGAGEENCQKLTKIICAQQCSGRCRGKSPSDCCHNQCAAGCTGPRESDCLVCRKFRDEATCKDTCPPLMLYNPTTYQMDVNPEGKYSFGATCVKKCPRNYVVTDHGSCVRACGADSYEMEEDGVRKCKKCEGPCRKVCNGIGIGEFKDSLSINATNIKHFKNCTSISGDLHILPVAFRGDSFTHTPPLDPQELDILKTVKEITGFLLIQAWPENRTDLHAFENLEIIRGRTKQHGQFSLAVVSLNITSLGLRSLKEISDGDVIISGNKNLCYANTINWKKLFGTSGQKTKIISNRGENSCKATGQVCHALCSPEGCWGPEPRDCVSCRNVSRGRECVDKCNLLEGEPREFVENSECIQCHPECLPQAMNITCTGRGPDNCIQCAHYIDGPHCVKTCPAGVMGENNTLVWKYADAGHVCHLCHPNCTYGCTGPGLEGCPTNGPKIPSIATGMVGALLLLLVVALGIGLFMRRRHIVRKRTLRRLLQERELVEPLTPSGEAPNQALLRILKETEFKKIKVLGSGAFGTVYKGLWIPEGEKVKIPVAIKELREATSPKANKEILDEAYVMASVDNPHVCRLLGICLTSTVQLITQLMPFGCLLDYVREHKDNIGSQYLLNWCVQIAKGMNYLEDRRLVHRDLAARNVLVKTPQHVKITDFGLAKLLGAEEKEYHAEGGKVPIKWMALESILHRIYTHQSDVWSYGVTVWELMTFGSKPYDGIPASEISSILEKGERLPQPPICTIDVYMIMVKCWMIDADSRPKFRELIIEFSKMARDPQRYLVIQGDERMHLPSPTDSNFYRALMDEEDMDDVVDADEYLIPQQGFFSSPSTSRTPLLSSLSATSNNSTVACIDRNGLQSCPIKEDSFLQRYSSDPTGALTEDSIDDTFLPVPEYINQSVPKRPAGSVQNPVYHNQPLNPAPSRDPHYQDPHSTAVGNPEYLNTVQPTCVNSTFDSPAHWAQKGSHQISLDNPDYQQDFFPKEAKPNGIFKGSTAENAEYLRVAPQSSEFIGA

OCCCNc1cncc(-c2ncnc(Nc3cccc(Cl)c3)n2)c1 [Compound 1, 3-((5-(4-((3-chlorophenyl)amino)-1,3,5-triazin-2-yl)-3-pyridinyl)amino)-1-propanol]
> 100 µM: all assays above
